Assay results published in ChEMBL document CHEMBL5126592, “Design, synthesis and activity against drug-resistant bacteria evaluation of C-20, C-23 modified 5-O-mycaminosyltylonolide derivatives” (Eur J Med Chem, 2022).
Converted amounts (≈) assume the structure as drawn.

How the values were obtained:
Type in all cases: functional
Conditions in all cases: time 16-20 hrs
Staphylococcus aureus [1] = assay: Antibacterial activity against Staphylococcus aureus incubated for 16 to 20 hrs by broth microdilution method
Staphylococcus aureus [2] = assay: Antibacterial activity against Staphylococcus aureus ATCC 25923 incubated for 16 to 20 hrs by broth microdilution method
Escherichia coli [3] = assay: Antibacterial activity against Escherichia coli ATCC 25922 incubated for 16 to 20 hrs by broth microdilution method
Cronobacter sakazakii = assay: Antibacterial activity against Cronobacter sakazakii ATCC 29544 incubated for 16 to 20 hrs by broth microdilution method
Klebsiella pneumoniae = assay: Antibacterial activity against Klebsiella pneumoniae ATCC 13883 incubated for 16 to 20 hrs by broth microdilution method
Enterococcus faecium = assay: Antibacterial activity against Enterococcus faecium incubated for 16 to 20 hrs by broth microdilution method
[4] = tested on: Streptococcus dysgalactiae; assay: Antibacterial activity against Streptococcus dysgalactiae incubated for 16 to 20 hrs by broth microdilution method
[5] = tested on: Staphylococcus chromogenes; assay: Antibacterial activity against Staphylococcus chromogenes incubated for 16 to 20 hrs by broth microdilution method
Escherichia coli [6] = assay: Antibacterial activity against Escherichia coli incubated for 16 to 20 hrs by broth microdilution method
Pseudomonas aeruginosa = assay: Antibacterial activity against Pseudomonas aeruginosa LTP-3 incubated for 16 to 20 hrs by broth microdilution method

Work on CC[C@H]1OC(=O)C[C@@H](O)[C@H](C)[C@@H](O[C@@H]2O[C@H](C)[C@@H](O)[C@H](N(C)C)[C@H]2O)[C@@H](CCN(C)Cc2cn(-c3cnc4ccccc4c3)nn2)C[C@@H](C)C(=O)/C=C/C(C)=C/[C@@H]1CN1CCCCC1 yielded an MIC (Staphylococcus aureus [1]) of 0.25 µg/mL (≈ 0.281 µM), an MIC (Staphylococcus aureus [2]) of 0.5 µg/mL (≈ 0.563 µM) and an MIC (Escherichia coli [3]) of 2 µg/mL (≈ 2.25 µM). The MIC (Cronobacter sakazakii) was 8 µg/mL (≈ 9.01 µM), the MIC (Klebsiella pneumoniae) was 2 µg/mL (≈ 2.25 µM) and the MIC (Enterococcus faecium) was 1 µg/mL (≈ 1.13 µM). For the same compound, the MIC [4] was 0.5 µg/mL (≈ 0.563 µM), the MIC [5] was 0.5 µg/mL (≈ 0.563 µM) and the MIC (Escherichia coli [6]) was 2 µg/mL (≈ 2.25 µM). It also gave an MIC (Pseudomonas aeruginosa) of 1 µg/mL (≈ 1.13 µM).

Work on CC[C@H]1OC(=O)C[C@@H](O)[C@H](C)[C@@H](O[C@@H]2O[C@H](C)[C@@H](O)[C@H](N(C)C)[C@H]2O)[C@@H](CCN(Cc2ccc(N(C)C)cc2)Cc2cn(-c3cnc4ccccc4c3)nn2)C[C@@H](C)C(=O)/C=C/C(C)=C/[C@@H]1CN1CCCCC1 yielded an MIC (Staphylococcus aureus [2]) of 0.5 µg/mL (≈ 0.496 µM), an MIC (Escherichia coli [3]) of 4 µg/mL (≈ 3.97 µM) and an MIC (Cronobacter sakazakii) of 8 µg/mL (≈ 7.94 µM). It also gave an MIC (Klebsiella pneumoniae) of 8 µg/mL (≈ 7.94 µM).

CN[C@H](CC(C)C)C(=O)N[C@H]1C(=O)N[C@@H](CC(N)=O)C(=O)N[C@H]2C(=O)N[C@H]3C(=O)N[C@H](C(=O)N[C@H](C(=O)O)c4cc(O)cc(O)c4-c4cc3ccc4O)[C@H](O)c3ccc(c(Cl)c3)Oc3cc2cc(c3O[C@@H]2O[C@H](CO)[C@@H](O)[C@H](O)[C@H]2O[C@H]2C[C@](C)(N)[C@H](O)[C@H](C)O2)Oc2ccc(cc2Cl)[C@H]1O [VANCOMYCIN] gave an MIC (Staphylococcus aureus [2]) of 0.25 µg/mL (≈ 0.173 µM), an MIC (Escherichia coli [3]) of 32 µg/mL (≈ 22.1 µM) and an MIC (Cronobacter sakazakii) of 32 µg/mL (≈ 22.1 µM). For the same compound, the MIC (Klebsiella pneumoniae) was 32 µg/mL (≈ 22.1 µM), the MIC (Enterococcus faecium) was 16 µg/mL (≈ 11 µM) and the MIC [4] was 16 µg/mL (≈ 11 µM). For the same compound, the MIC [5] was 8 µg/mL (≈ 5.52 µM), the MIC (Escherichia coli [6]) was > 32 µg/mL and the MIC (Pseudomonas aeruginosa) was 32 µg/mL (≈ 22.1 µM).

With CC[C@H]1OC(=O)C[C@@H](O)[C@H](C)[C@@H](O[C@@H]2O[C@H](C)[C@@H](O)[C@H](N(C)C)[C@H]2O)[C@@H](CCN(Cc2ccc(N(C)C)cc2)Cc2cn(-c3cnc4ccccc4c3)nn2)C[C@@H](C)C(=O)/C=C/C(C)=C/[C@@H]1CN(CC)CC the MIC (Staphylococcus aureus [2]) was 0.5 µg/mL (≈ 0.502 µM), the MIC (Escherichia coli [3]) was 4 µg/mL (≈ 4.02 µM) and the MIC (Cronobacter sakazakii) was 16 µg/mL (≈ 16.1 µM). The MIC (Klebsiella pneumoniae) was 8 µg/mL (≈ 8.04 µM).

With CC[C@H]1OC(=O)C[C@@H](O)[C@H](C)[C@@H](O[C@@H]2O[C@H](C)[C@@H](O)[C@H](N(C)C)[C@H]2O)[C@@H](CCN(Cc2cn(-c3cnc4ccccc4c3)nn2)Cc2ccc(CO)o2)C[C@@H](C)C(=O)/C=C/C(C)=C/[C@@H]1CO the MIC (Staphylococcus aureus [2]) was 0.5 µg/mL (≈ 0.545 µM), the MIC (Escherichia coli [3]) was 32 µg/mL (≈ 34.9 µM) and the MIC (Cronobacter sakazakii) was 32 µg/mL (≈ 34.9 µM). It also gave an MIC (Klebsiella pneumoniae) of 32 µg/mL (≈ 34.9 µM).

With CC[C@H]1OC(=O)C[C@@H](O)[C@H](C)[C@@H](O[C@@H]2O[C@H](C)[C@@H](O)[C@H](N(C)C)[C@H]2O)[C@@H](CCN(Cc2ccc(C(F)(F)F)cc2)Cc2cn(-c3cnc4ccccc4c3)nn2)C[C@@H](C)C(=O)/C=C/C(C)=C/[C@@H]1CN1CCCCCCC1 the MIC (Staphylococcus aureus [2]) was 1 µg/mL (≈ 0.943 µM), the MIC (Escherichia coli [3]) was 4 µg/mL (≈ 3.77 µM) and the MIC (Cronobacter sakazakii) was 32 µg/mL (≈ 30.2 µM). For the same compound, the MIC (Klebsiella pneumoniae) was 8 µg/mL (≈ 7.54 µM).

CC[C@H]1OC(=O)C[C@@H](O)[C@H](C)[C@@H](O[C@@H]2O[C@H](C)[C@@H](O)[C@H](N(C)C)[C@H]2O)[C@@H](CCN(C)Cc2cn(-c3cnc4ccccc4c3)nn2)C[C@@H](C)C(=O)/C=C/C(C)=C/[C@@H]1CN1CCC(O)CC1 was tested, and the MIC (Staphylococcus aureus [2]) was 8 µg/mL (≈ 8.85 µM), the MIC (Escherichia coli [3]) was 16 µg/mL (≈ 17.7 µM) and the MIC (Cronobacter sakazakii) was 32 µg/mL (≈ 35.4 µM). For the same compound, the MIC (Klebsiella pneumoniae) was 16 µg/mL (≈ 17.7 µM).

In the case of CC[C@H]1OC(=O)C[C@@H](O)[C@H](C)[C@@H](O[C@@H]2O[C@H](C)[C@@H](O)[C@H](N(C)C)[C@H]2O)[C@@H](CCN(Cc2ccc(C(F)(F)F)cc2)Cc2cn(-c3cnc4ccccc4c3)nn2)C[C@@H](C)C(=O)/C=C/C(C)=C/[C@@H]1CN1CC(C)CC(C)C1 (some centres undefined), the MIC (Staphylococcus aureus [2]) is reported as 4 µg/mL (≈ 3.77 µM), the MIC (Escherichia coli [3]) is reported as 32 µg/mL (≈ 30.2 µM) and the MIC (Cronobacter sakazakii) is reported as 16 µg/mL (≈ 15.1 µM). It also gave an MIC (Klebsiella pneumoniae) of 16 µg/mL (≈ 15.1 µM).

For CC[C@H]1OC(=O)C[C@@H](O)[C@H](C)[C@@H](O[C@@H]2O[C@H](C)[C@@H](O)[C@H](N(C)C)[C@H]2O)[C@@H](CCN(Cc2cn(-c3cnc4ccccc4c3)nn2)Cc2ccco2)C[C@@H](C)C(=O)/C=C/C(C)=C/[C@@H]1CN1CCCCC1, the MIC (Staphylococcus aureus [2]) was 0.25 µg/mL (≈ 0.262 µM), the MIC (Escherichia coli [3]) was 8 µg/mL (≈ 8.38 µM) and the MIC (Cronobacter sakazakii) was 32 µg/mL (≈ 33.5 µM). It also gave an MIC (Klebsiella pneumoniae) of 32 µg/mL (≈ 33.5 µM).

With CC[C@H]1OC(=O)C[C@@H](O)[C@H](C)[C@@H](O[C@@H]2O[C@H](C)[C@@H](O)[C@H](N(C)C)[C@H]2O)[C@@H](CCN(Cc2cccnc2)Cc2cn(-c3cnc4ccccc4c3)nn2)C[C@@H](C)C(=O)/C=C/C(C)=C/[C@@H]1CO the MIC (Staphylococcus aureus [2]) was 0.5 µg/mL (≈ 0.557 µM), the MIC (Escherichia coli [3]) was 32 µg/mL (≈ 35.6 µM) and the MIC (Cronobacter sakazakii) was 32 µg/mL (≈ 35.6 µM). For the same compound, the MIC (Klebsiella pneumoniae) was 32 µg/mL (≈ 35.6 µM).

Compound CC[C@H]1OC(=O)C[C@@H](O)[C@H](C)[C@@H](O[C@@H]2O[C@H](C)[C@@H](O)[C@H](N(C)C)[C@H]2O)[C@@H](CCN(Cc2ccccc2)Cc2cn(-c3cnc4ccccc4c3)nn2)C[C@@H](C)C(=O)/C=C/C(C)=C/[C@@H]1CN1CCCCCC1 has an MIC (Staphylococcus aureus [2]) of 1 µg/mL (≈ 1.02 µM), an MIC (Escherichia coli [3]) of 4 µg/mL (≈ 4.09 µM) and an MIC (Cronobacter sakazakii) of 8 µg/mL (≈ 8.18 µM). It also gave an MIC (Klebsiella pneumoniae) of 4 µg/mL (≈ 4.09 µM).

CC[C@H]1OC(=O)C[C@@H](O)[C@H](C)[C@@H](O[C@@H]2O[C@H](C)[C@@H](O)[C@H](N(C)C)[C@H]2O)[C@@H](CCN(Cc2cn(-c3cnc4ccccc4c3)nn2)Cc2ccco2)C[C@@H](C)C(=O)/C=C/C(C)=C/[C@@H]1CN(C)C showed an MIC (Staphylococcus aureus [2]) of 0.5 µg/mL (≈ 0.547 µM), an MIC (Escherichia coli [3]) of 4 µg/mL (≈ 4.38 µM) and an MIC (Cronobacter sakazakii) of 16 µg/mL (≈ 17.5 µM). The MIC (Klebsiella pneumoniae) was 8 µg/mL (≈ 8.75 µM).
